The nature of series [1]: encapsulation and release in microparticles of the invention. It is filed as physicochemical.
Series [2] concerns pulmonary fibrosis in mice using bleomycin. Kind of series: bleomycin pulmonary fibrosis in mice, inhaled flavopiridol. It is filed as in vivo. The note with it: every two days from eight days post-bleomycin, 14-day treatment. The procedure: Our experimental model involved the induction of pulmonary fibrosis in mice using bleomycin, followed by the administration of inhaled flavopiridol during the early fibrotic phase of the model. Eight days post-intratracheal instillation of bleomycin, mice were treated with either a vehicle or inhaled flavopiridol every two days. After a 14-day treatment course, lung tissues were harvested and subjected to histological and biochemical analysis. A notable loss of body weight observed in bleomycin-exposed mice served as an indicator of successful fibrosis induction (FIG. 9).

In series [3] the test system is TNF-stimulated luciferase reporter expression, driven by a NF-kB responsive promoter, in HEK293 cells. The experiment in a line: NF-kB luciferase reporter bioactivity assay. It is filed as cell-based, Human. To be noted: 300 nM flavopiridol, 0.6 nM TNF-α, 24 h. (In a reporter assay the amount or activity of a reporter protein is the signal.)
Experimental: The bioactivity of flavopiridol released from ILDF particles was determined by a luciferase reporter assay as described previously. ILDF particles (18.94 mg) containing 0.190% (w/w) flavopiridol was dissolved in DMEM with 10% FBS to a stock solution of 8.9×10^4 nM flavopiridol. The bioactivity of flavopiridol was measured by its ability to suppress TNF-stimulated luciferase reporter expression, driven by a NF-kB responsive promoter. Human embryonic kidney 293 cells (HEK293) cells (ATCC) harboring a NF-kB-driven luciferase reporter were seeded in 96-well plates (10,000 cells/well in triplicates) 24 hours before the experiment. Cells were then treated with 100 μL of media containing 0.6 nM recombinant human TNF-α (Peprotech), in the presence or absence of various amount of dissolved flavopiridol formulation or blank formulation equivalent. After 24 h, 100 μL of 2× lysis buffer (Invitrogen) containing luciferase substrate was added directly to each well. Luminescence was measured in a plate reader (SpectraMax iD3, Molecular Devices). Experiments were performed in triplicate (N=3) from one batch of particles, and results were reported as mean±SD.
The next series deals with NFκB target genes. The experiment in a line: suppression of IL-1β-induced primary inflammatory response genes in human cell culture. It is filed as cell-based. The procedure: CDK9 inhibitors exert effects on the inflammatory response pathway. For example, the pharmacological CDK9 inhibitor flavopiridol effectively suppresses the activation of a broad range of primary inflammatory response genes, in human cell culture treated with IL-1β for 5 hours (see FIG. 1). Among the 67 different genes (out of 84 total NFκB target genes tested) that were induced by IL-1β, 59 were repressed by flavopiridol co-treatment (including the most-characterized pro-inflammatory cytokines such as IL-1β, Il-6, and TNF). The average magnitude of repression is >86% of maximum induction. […] Importantly, house-keeping genes and non-inducible genes are not affected by CDK9 inhibition short term, indicating potential reduction in side effects.

Series [4] deals with lung fibrosis mouse model (bleomycin). The experiment in a line: bleomycin lung fibrosis mouse model, i.p. treatment. In kind it is in vivo, C57B/L6 mice. To be noted: vs BLM+ vehicle control. The procedure: The effects of flavopiridol on lung inflammation and fibrosis were assessed in a lung fibrosis mouse model. C57B/L6 mice were treated with bleomycin (BLM) by microsprayer. At day 7 after BLM treatment, alveolar damage became apparent in the treated mice. At day 9, the mice were divided into 4 groups of 8 animals each. Each group received its corresponding treatment every other day starting at Day 9. At Day 30, the animals were sacrificed and assessed. One group received only phosphate buffer saline (PBS). One group received 28 mg/kg nitedanib by intraperitoneal injection (i.p.). One group received 2.5 mg/kg of flavopiridol i.p. and one group received 28 mg/kg idebenone i.p. Survival and lung morphology were assessed at day 30. […] Lung tissue sections from the treated animals were stained with Masson's trichome staining protocol and exemplary images are shown in FIG. 8D.

For series [5] the following is noted: cited from earlier work.
[6] abbreviates: 2.5 mg/kg i.p. every other day from Day 9, Day 30.

Consider two compounds from patent US20260053750A1, “INHALABLE COMPOSITIONS OF CDK9 INHIBITORS” (THE REGENTS OF THE UNIVERSITY OF CALIFORNIA, priority 2022, published 2026).

For the compound `CCc1cnn2c(NCc3ccc[n+]([O-])c3)cc(N3CCCC[C@H]3CCO)nc12` [Dinaciclib], the “encapsulation and release in microparticles” value in series [1] is “not encapsulated effectively or released appropriately”.
Take `CN1CC[C@H](c2c(O)cc(O)c3c(=O)cc(-c4ccccc4Cl)oc23)[C@H](O)C1` [flavopiridol, 2-(2-chlorophenyl)-5,7-dihydroxy-8-[(3S,4R)-3-hydroxy-1-methyl-4-piperidinyl]-4-chromenone]: the hydroxyproline levels entry in series [2] is given as “appeared to suppress the bleomycin-induced increase of hydroxyproline levels”. The survival rate entry in series [2] (vs vehicle group) is “higher survival rate”. In addition, the TNF-α-stimulated luciferase activity entry in series [3] is “the luciferase activation was suppressed”. In the series with NFκB target genes (human cell culture treated with IL-1β for 5 hours, flavopiridol co-treatment), the “average magnitude of repression” value is given as > 86 % of maximum induction. In addition, the “number of IL-1β-induced genes repressed by flavopiridol co-treatment” value with NFκB target genes (of 67 genes induced by IL-1β (84 NFκB target genes tested), human cell culture, IL-1β for 5 hours) stood at 59. Besides, in series [4] (setting [6]), the hydroxyproline level result is recorded as “statistically significant lower level of hydroxyproline” and the “percentage of stained area (Masson's trichome, lung sections)” value is given as “statistically significant decrease in percentage of stained area”. Also, in series [4] (2.5 mg/kg i.p. every other day from Day 9, to Day 30), the survival rate entry was “statistically significant difference in survival rate”. Also, the body weight entry in series [4] (2.5 mg/kg i.p. every other day from Day 9) is reported as “generally maintained a higher body weight”. In addition, the in-vivo half-life result in series [5] is recorded as “under 6 hours”.
